Laboratory results from US8906825B2, “Herbicidal compositions comprising 4-amino-3-chloro-5-fluoro-6-(4-chloro-2-fluoro-3-methoxyphenyl) pyridine-2-carboxylic acid or a derivative thereof and triazolopyrimidine sulfonamides” (Dow AgroSciences LLC, priority 2012, dated 2014).

Key:
Format in all cases: in vivo
[1] = test system: LEFCH (Leptochloa chinensis (L.) Nees, Chinese sprangletop); assay: In-water applied herbicidal mixtures, transplanted paddy rice, greenhouse (Example II)
Procedure: (§1) Weed seeds or nutlets of the desired test plant species were planted in puddled soil (mud) prepared by mixing a shredded, non-sterilized mineral soil (50.5 percent silt, 25.5 percent clay, and 24 percent sand, with a pH of about 7.6 and an organic matter content of about 2.9 percent) and water at a 1:1 volumetric ratio. The prepared mud was dispensed in 365 mL aliquots into 16-ounce (oz.) non-perforated plastic pots with a surface area of 86.59 square centimeters (cm^2) leaving a headspace of 3 centimeters in each pot. Mud was allowed to dry overnight prior to planting or transplanting. Rice seeds were planted in Sun Gro MetroMix® 306 planting mixture, which typically has a pH of 6.0 to 6.8 and an organic matter content of about 30 percent, in plastic plug trays. Seedlings at the second or third leaf stage of growth were transplanted into 840 mL of mud contained in 32-oz. non-perforated plastic pots with a surface area of 86.59 cm^2 4 days prior to herbicide application. The paddy was created by filling the headspace of the pots with 2.5 to 3 cm of water. When required to ensure good germination and healthy plants, a fungicide treatment and/or other chemical or physical treatment was applied. The plants were grown for 4-22 days in a greenhouse with an approximate 14 h photoperiod which was maintained at about 29′C during the day and about 26° C. during the night. Nutrients were added as Osmocote® (19:6:12, N:P:K+minor nutrients) at 2 g per 16-oz. pot and 4 g per 32-oz. pot. Water was added on a regular basis to maintain the paddy flood, and supplemental lighting was provided with overhead metal halide 1000-Watt lamps as necessary. The plants were employed for testing when they reached the first through fourth true leaf stage.
(§2) Treatments consisted of the acid or esters of 4-amino-3-chloro-5-fluoro-6-(4-chloro-2-fluoro-3-methoxy-phenyl)pyridine-2-carboxylic acid (compound A) each formulated as an SC and various herbicidal components alone and in combination. Forms of compound A were applied on an acid equivalent basis.
(§3) Other herbicidal components were applied on an active ingredient basis and included acetolactate synthase (ALS)-inhibiting herbicides (sulfonamide chemical class) penoxsulam formulated as Grasp® SC (GF-443), diclosulam formulated as Strongarm®, and cloransulam-methyl formulated as FirstRate®.
(§4) Treatment requirements for each compound or herbicidal component were calculated based upon the rates being tested, the concentration of active ingredient or acid equivalent in the formulation, an application volume of 2 mL per component per pot, and an application area of 86.59 cm^2 per pot.
(§5) For formulated compounds, a measured amount was placed in an individual 100 or 200 mL glass vial and was dissolved in a volume of 1.25% (v/v) Agri-Dex® crop oil concentrate to obtain each application solution.
(§6) Applications were made by injecting with a pipetter appropriate amounts of the application solutions, individually and sequentially, into the aqueous layer of the paddy. Control plants were treated in the same manner with the solvent blank. Applications were made so that all treated plant material received the same concentrations of acetone and crop oil concentrate.
(§7) The treated plants and control plants were placed in a greenhouse as described above and water was added as needed to maintain a paddy flood. After approximately 3 weeks the condition of the test plants as compared with that of the untreated plants was determined visually and scored on a scale of 0 to 100 percent where 0 corresponds to no injury or growth inhibition and 100 corresponds to complete kill.
(§8) Colby's equation was used to determine the herbicidal effects expected from the mixtures (Colby, S. R. 1967. Calculation of the synergistic and antagonistic response of herbicide combinations. Weeds 15:20-22.).
(§9) The following equation was used to calculate the expected activity of mixtures containing two active ingredients, A and B: Expected=A+B−(A×B/100)

[2] = test system: FIMMI (Fimbristylis miliacea (L.) Vahl, globe fringerush); assay: as above
Procedure: as §1, §2, §3, §4, §5, §6, §7, §8, §9

[3] = test system: CYPRO (Cyperus rotundus L., purple nutsedge); assay: as above; conditions: Compound A Acid 8.75 gae/ha
Procedure: as §1, §2, §3, §4, §5, §6, §7, §8, §9

[4] = test system: CYPDI (Cyperus difformis L., smallflower umbrella sedge); assay: as above; conditions: Compound A Acid 16 gae/ha
Procedure: as §1, §2, §3, §4, §5, §6, §7, §8, §9

[5] = test system: ECHCG (Echinochloa crusgalli (L.) Beauv., barnyardgrass); assay: as above
Procedure: as §1, §2, §3, §4, §5, §6, §7, §8, §9

[6] = test system: DIGSA (Digitaria sanguinalis (L.) Scop., large crabgrass); assay: Postemergence foliar-applied herbicidal mixtures, direct seeded rice, greenhouse (Example I)
Source text: (§10) Seeds or nutlets of the desired test plant species were planted in a soil matrix prepared by mixing a loam or sandy loam soil (e.g., 28.6 percent silt, 18.8 percent clay, and 52.6 percent sand, with a pH of about 5.8 and an organic matter content of about 1.8 percent) and calcareous grit in an 80 to 20 ratio. The soil matrix was contained in plastic pots with a volume of 1 quart and a surface area of 83.6 square centimeters (cm^2). When required to ensure good germination and healthy plants, a fungicide treatment and/or other chemical or physical treatment was applied. The plants were grown for 8-22 days in a greenhouse with an approximate 14 h photoperiod which was maintained at about 29° C. during the day and about 26° C. during the night. Nutrients (Peters Excel® 15-5-15 5-Ca 2-Mg and iron chelate) were applied in the irrigation solution as needed and water was added on a regular basis. Supplemental lighting was provided with overhead metal halide 1000-Watt lamps as necessary. The plants were employed for testing when they reached the first through fourth true leaf stage.
as §2, with “(Compound A),” for “(compound A)”, “SC (suspension concentrate),” for “SC”
as §3, with “SC,” for “SC (GF-443),”, “FirstRate®, flumetsulam formulated as Flumetsulam WG, and metosulam formulated as Eclipse®.” for “FirstRate®.”
(§11) Treatment requirements were calculated based upon the rates being tested, the concentration of active ingredient or acid equivalent in the formulation, and a 12 mL application volume at a rate of 187 L/ha.
(§12) For treatments comprised of formulated compounds, measured amounts of compounds were placed individually in 25 mL glass vials and diluted in a volume of 1.25% (v/v) Agri-Dex® crop oil concentrated to obtain 12× stock solutions. […] Application solutions were prepared by adding an appropriate amount of each stock solution (e.g., 1 mL) and diluted to the appropriate final concentrations with the addition of 10 mL of an aqueous mixture of 1.25% (v/v) crop oil concentrate so that the final spray solutions contained 1.25+/−0.05% (v/v) crop oil concentrate.
(§13) All stock solutions and applications solutions were visually inspected for compound compatibility prior to application. Spray solutions were applied to the plant material with an overhead Mandel track sprayer equipped with an 8002E nozzle calibrated to deliver 187 L/ha over an application area of 0.503 m^2 at a spray height of 18 to 20 inches (46 to 50 cm) above average plant canopy height. Control plants were sprayed in the same manner with the solvent blank.
as §7, with “watered by sub-irrigation” for “water was added as needed”, “prevent wash-off of the test compounds.” for “maintain a paddy flood.”, “weeks,” for “weeks”
as §8, §9

[7] = test system: IPOHE (Ipomoea hederacea Jacq., ivyleaf morningglory); assay: as above
Source text: as §10
as §2, with “(Compound A),” for “(compound A)”, “SC (suspension concentrate),” for “SC”
as §3, with “SC,” for “SC (GF-443),”, “FirstRate®, flumetsulam formulated as Flumetsulam WG, and metosulam formulated as Eclipse®.” for “FirstRate®.”
as §11, §12, §13
as §7, with “watered by sub-irrigation” for “water was added as needed”, “prevent wash-off of the test compounds.” for “maintain a paddy flood.”, “weeks,” for “weeks”
as §8, §9

[8] = test system: LEFCH (Leptochloa chinensis (L.) Nees, Chinese sprangletop); assay: as above
Source text: as §10
as §2, with “(Compound A),” for “(compound A)”, “SC (suspension concentrate),” for “SC”
as §3, with “SC,” for “SC (GF-443),”, “FirstRate®, flumetsulam formulated as Flumetsulam WG, and metosulam formulated as Eclipse®.” for “FirstRate®.”
as §11, §12, §13
as §7, with “watered by sub-irrigation” for “water was added as needed”, “prevent wash-off of the test compounds.” for “maintain a paddy flood.”, “weeks,” for “weeks”
as §8, §9

[9] = test system: MATCH (Chamomilla chamomilla (L.) Rydb., scented mayweed); assay: Postemergence foliar-applied herbicidal mixtures, cereal crops, greenhouse (Example III); conditions: Florasulam 3.75 gai/ha, visual score 0 to 100 percent after 20-22 days
Procedure: (§14) Seeds of the desired test plant species were planted in Sun Gro MetroMix® 306 planting mixture, which typically has a pH of 6.0 to 6.8 and an organic matter content of about 30 percent, in plastic pots with a surface area of 103.2 square centimeters (cm^2). […] The plants were grown for 7-36 days in a greenhouse with an approximate 14 hour photoperiod which was maintained at about 18° C. during the day and about 17° C. during the night. Nutrients and water were added on a regular basis and supplemental lighting was provided with overhead metal halide 1000-Watt lamps as necessary. The plants were employed for testing when they reached the second or third true leaf stage.
(§15) Treatments consisted of the benzyl ester of 4-amino-3-chloro-5-fluoro-6-(4-chloro-2-fluoro-3-methoxy-phenyl)pyridine-2-carboxylic acid (Compound A), formulated as an SC, a second cereal herbicide alone and then both in combination.
(§16) Other herbicidal components were applied on an active ingredient basis and included acetolactate synthase (ALS)-inhibiting herbicides (sulfonamide chemical class) florasulam formulated as Derby® and pyroxsulam formulated as PowerFlex®. A measured aliquot of benzyl ester of 4-amino-3-chloro-5-fluoro-6-(4-chloro-2-fluoro-3-methoxy-phenyl)pyridine-2-carboxylic acid (Compound A) was placed in 25 milliliter (mL) glass vials and diluted in a volume of 1.25% (v/v) AgriDex® crop oil concentrated to obtain a stock solution. Compound requirements are based upon a 12 mL application volume at a rate of 187 liters per hectare (L/ha). […] Formulated compounds were applied to the plant material with an overhead Mandel track sprayer equipped with an 8002E nozzle calibrated to deliver 187 L/ha over an application area of 0.503 square meters (m^2) at a spray height of 18 inches (46 cm) above average plant canopy. Control plants were sprayed in the same manner with the solvent blank.
(§17) The treated plants and control plants were placed in a greenhouse as described above and watered by sub-irrigation to prevent wash-off of the test compounds. After 20-22 days, the condition of the test plants as compared with that of the control plants was determined visually and scored on a scale of 0 to 100 percent where 0 corresponds to no injury and 100 corresponds to complete kill.
as §8, §9

[10] = test system: SASKR (Salsola iberica (L.), Russian thistle); assay: as above; conditions: Florasulam 3.75 gai/ha, visual score 0 to 100 percent after 20-22 days
Procedure: as §14, §15, §16, §17, §8, §9

[11] = test system: CIRAR (Cirsium arvense (L.) Scop., Canada thistle); assay: as above; conditions: visual score 0 to 100 percent after 20-22 days
Procedure: as §14, §15, §16, §17, §8, §9

[12] = test system: LAMPU (Lamium purpureum (L.), purple deadnettle); assay: as above; conditions: Florasulam 1.25 gai/ha, visual score 0 to 100 percent after 20-22 days
Procedure: as §14, §15, §16, §17, §8, §9

[13] = test system: VERPE (Veronica persica Poir., bird's-eye speedwell); assay: as above; conditions: visual score 0 to 100 percent after 20-22 days
Procedure: as §14, §15, §16, §17, §8, §9

[14] = test system: VIOTR (Viola tricolor (L.), wild pansy); assay: as above; conditions: Florasulam 3.75 gai/ha, visual score 0 to 100 percent after 20-22 days
Procedure: as §14, §15, §16, §17, §8, §9

Compound: COc1c(Cl)ccc(-c2nc(C(=O)O)c(Cl)c(N)c2F)c1F [Compound A Acid, 4-amino-3-chloro-5-fluoro-6-(4-chloro-2-fluoro-3-methoxy-phenyl)pyridine-2-carboxylic acid]
- Visual Weed Control (%) - 25 DAA LEFCH Obs ([1]; Compound A Acid 8.75 gae/ha): 50%
- Visual Weed Control (%) - 25 DAA LEFCH Obs ([1]; Compound A Acid 17.5 gae/ha): 50%
- Visual Weed Control (%) - 25 DAA LEFCH Obs ([1]; Compound A Acid 35 gae/ha): 85%
- Visual Weed Control (%) - 21 DAA FIMMI Obs ([2]; Compound A Acid 16 gae/ha): 20%
- Visual Weed Control (%) - 21 DAA FIMMI Obs ([2]; Compound A Acid 32 gae/ha): 20%
- Visual Weed Control (%) - 21 DAA CYPRO Obs [3]: 0%
- Visual Weed Control (%) - 21 DAA CYPDI Obs [4]: 30%
- Visual Weed Control (%) - 22 DAA ECHCG Obs ([5]; Compound A Acid 16 gae/ha): 20%
- Visual Weed Control (%) - 22 DAA ECHCG Obs ([5]; Compound A Acid 32 gae/ha): 25%
- Visual Weed Control (%) - 20 DAA DIGSA Obs ([6]; Compound A Acid 5.3 gae/ha): 10%
- Visual Weed Control (%) - 20 DAA DIGSA Obs ([6]; Compound A Acid 10.6 gae/ha): 20%
- Visual Weed Control (%) - 20 DAA DIGSA Obs ([6]; Compound A Acid 21.2 gae/ha): 20%
- Visual Weed Control (%) - 27 DAA IPOHE Obs ([7]; Compound A Acid 4.38 gae/ha): 10%
- Visual Weed Control (%) - 27 DAA IPOHE Obs ([7]; Compound A Acid 8.75 gae/ha): 10%
- Visual Weed Control (%) - 27 DAA IPOHE Obs ([7]; Compound A Acid 17.5 gae/ha): 10%
- Visual Weed Control (%) - 20 DAA LEFCH Obs ([8]; Compound A Acid 4.38 gae/ha): 15%
- Visual Weed Control (%) - 20 DAA LEFCH Obs ([8]; Compound A Acid 5.3 gae/ha): 0%
- Visual Weed Control (%) - 20 DAA LEFCH Obs ([8]; Compound A Acid 8.75 gae/ha): 30%
- Visual Weed Control (%) - 20 DAA LEFCH Obs ([8]; Compound A Acid 10.6 gae/ha): 10%
- Visual Weed Control (%) - 20 DAA LEFCH Obs ([8]; Compound A Acid 17.5 gae/ha): 50%
- Visual Weed Control (%) - 19 DAA LEFCH Obs ([8]; Compound A Acid 19.4 gae/ha): 5%
- Visual Weed Control (%) - 20 DAA LEFCH Obs ([8]; Compound A Acid 21.2 gae/ha): 15%

Compound: COc1ncc(F)c2nc(S(=O)(=O)Nc3c(F)cccc3F)nn12 [Florasulam, N-(2,6-difluorophenyl)-8-fluoro-5-methoxy[1,2,4]triazolo[1,5-c]pyrimidine-2-sulfonamide, reference compound]
- MATCH Obs [9]: 65%
- SASKR Obs [10]: 30%
- CIRAR Obs ([11]; Florasulam 1.25 gai/ha): 55%
- CIRAR Obs ([11]; Florasulam 3.75 gai/ha): 40%
- LAMPU Obs [12]: 10%
- VERPE Obs ([13]; Florasulam 1.25 gai/ha): 10%
- VERPE Obs ([13]; Florasulam 3.75 gai/ha): 10%
- VIOTR Obs [14]: 65%
